Test results as given in patent publication US12697316B2, “Combination therapy with acetyl-leucine and miglustat” (INTRABIO LTD., priority 2019, dated 2026).

System: NPC patients
Assay: Observational clinical study of adult NPC patients treated with ADLL
Assay type: in vivo, human
Excerpt: Progression of a LSD or one or more symptoms of a LSD over time or through treatment can be monitored, for example, using one or more known tests at two or more time points and comparing the results. Disease progression and/or severity can be assessed, for example, using the Scale for the Assessment and Rating of Ataxia (SARA), Spinocerebellar Ataxia Functional Index (SCAFI), the International Cooperative Ataxia Rating Scale (ICARS), the brief ataxia rating scale (BARS), the modified Disability Rating Scale (mDRS), EuroQol 5Q-5D-5L (EQ-5D-5L), the visual analogue scale (VAS), Wechsler Adult Intelligence Scale-Revised (WAIS-R), Wechsler Intelligence Scale for Children-IV (WISC-IV), Montreal Cognitive Assessment (MoCA) or other suitable tests. For certain LSDs, such as NPC, particular scores have been developed and validated over the last decades, for instance the clinical severity score (CSS) and annual severity increment score (ASIS) (see Yanjanin et al., “Linear Clinical Progression, Independent of Age of Onset, in Niemann—Pick Disease, Type C,” Am J Med Genet Part B 153B:132-140) and the modified 6-Domain NP-C disability Scale (mDRS score). For example, an NPC patient's severity can be quantified by assigning a CSS, which assesses various parameters of the disease (ambulation, seizures, eye movement, etc.) and gives each parameter a score out of 5. A higher score equals a greater severity. The ASIS quantifies the annual rate of change in the CSS, calculated by dividing the CSS by the patient's age. In this regard, certain scores in these tests are characteristic of symptomatic LSD patients and evidence disease progression and/or severity.
Demographics and statistical analysis of a clinical observational study of adult NPC patients treated with ADLL: The cohort comprised 3 females and 10 males. Consent from all participants was obtained. Twelve of the NPC patients were on miglustat therapy (minimum exposure 2.65, 1t^st quartile 3.44, median 4.92, mean 4.87, 3rd quartile 5.80 and maximum 7.98 years). The thirteen NPC1 patients participated in an observational study treated with 5 g/day acetyl-DL-leucine (Tanganil™). Three patients had four prospective clinical severity score measurements and ten patients had five measurements taken during this observational study (NIH, CSS). Retrospective data were used to calculate rates of disease progression prior to recruitment to this study. The mean age at the start of acetyl-DL-leucine (Tanganil™) treatment was 26.59 years. The minimum age was 15.44, 1s^t quartile 20.97, median 26.98 and third quartile 30.79 with maximum age 37.37 years. The time in the observational treatment study was a […], 1st quartile 0.81, median 1, mean 0.95, third quartile 1.13 and maximum 1.21 years.

[1] = number of the 13 treated NPC patients, neurological subdomain

CC(=O)NC(CC(C)C)C(=O)O (racemic) [ADLL, N-acetyl-DL-leucine]
mean change in Annual Severity Increment Scores (ASIS) (13 NPC patients): −9.1 %/year | average slope of disease progression (total clinical severity score) following initiation of treatment (13 adult NPC patients, 5 g/day, 12 also on miglustat, average slope before treatment 1.8): −1.78 severity units/year | Ambulation: Deteriorated [1]: 1 | Ambulation: Improved [1]: 8 | Ambulation: Stable [1]: 4 | Cognition: Deteriorated [1]: 1 | Cognition: Improved [1]: 6 | Cognition: Stable [1]: 6 | Eye movement: Deteriorated [1]: 1 | Eye movement: Improved [1]: 8 | Eye movement: Stable [1]: 4 | Fine motor skills: Deteriorated [1]: 2 | Fine motor skills: Improved [1]: 8 | Fine motor skills: Stable [1]: 3 | Memory: Deteriorated [1]: 1 | Memory: Improved [1]: 10 | Memory: Stable [1]: 2 | Speech: Deteriorated [1]: 3 | Speech: Improved [1]: 3 | Speech: Stable [1]: 7 | Swallow: Deteriorated [1]: 1 | Swallow: Improved [1]: 10 | Swallow: Stable [1]: 2 | patients with negative slopes following initiation of treatment (of 13 NPC patients): 10 | patients with no slope following initiation of treatment (of 13 NPC patients): 3
